Measurements reported in patent US20250222124A1, “PROTEIN CONJUGATES WITH MULTIPLE PAYLOADS AND METHODS FOR MAKING THE SAME” (GLYCO-THERAPY BIOTECHNOLOGY CO., LTD., priority 2022, published 2025).

System: HpFT-2 (Helicobacter pylori α1,3 fucosyltrasferase)
Test: Conversion efficiency of α1,3 fucosyltrasferase towards GDP-fucose derivatives with different jointer on the antibodies (LC-MS)
Type: biochemical
Details: substrate 1 mM, HpFT-2 0.5 mg/mL
Method: Trastuzumab-(GalNAzβ1,4)GlcNAc (2 mg/mL) was incubated with GDP-FAzP4Biotin (1 mM) or GDP-FAmP4Biotin (1 mM) and HpFT-2 (0.5 mg/mL) in 50 mM Tris-HCl buffer (pH 7.5) with 5 mM MgCl2 at 30° C. for 2 hours. […] The reaction mixtures were then quenched by adding LacNAc (final concentration 10 mM) and purified with protein A resin and analyzed by LC-MS respectively.

[1] = antibody Trastuzumab-(Fucα1,6)(Galβ1,4)GlcNAc 2 mg/mL, reaction time 10 min, average MAR/2*100%
[2] = antibody Trastuzumab-(GalNAzβ1,4)GlcNAc 2 mg/mL, reaction time 2 h, average MAR/2*100%
[3] = antibody Trastuzumab-(Galβ1,4)GlcNAc 2 mg/mL, reaction time 10 min, average MAR/2*100%

Nc1nc2c(ncn2[C@@H]2O[C@H](COP(=O)(O)OP(=O)(O)O[C@H]3OC(CNC(=O)CCOCCOCCOCCOCCNC(=O)CCCC[C@@H]4SC[C@@H]5NC(=O)N[C@@H]54)[C@@H](O)C(O)C3O)C(O)C2O)c(=O)[nH]1 (stereo partly shown) [GDP-FAmP4Biotin]
% of conversion [1]: 42 ± 5.3% | % of conversion [2]: 77 ± 5.0% | % of conversion [3]: 83 ± 1.2%

Nc1nc2c(ncn2[C@@H]2O[C@H](COP(=O)(O)OP(=O)(O)O[C@H]3OC(Cn4cc(COCCOCCOCCOCCNC(=O)CCCC[C@@H]5SC[C@@H]6NC(=O)N[C@@H]65)nn4)[C@@H](O)[C@H](O)C3O)C(O)[C@@H]2O)c(=O)[nH]1 (stereo partly shown) [GDP-FAzP4Biotin]
% of conversion [1]: 30 ± 4.6% | % of conversion [2]: 13 ± 4.7% | % of conversion [3]: 60 ± 0.6% | % of conversion (antibody Trastuzumab-G2F 2 mg/mL, reaction time 2 h, average MAR/4*100%): 9 ± 1.2%
